{"source": "patent US8008294B2", "about": "(AstraZeneca AB, priority 2006, dated 2011)", "format_in_all_cases": "physicochemical", "key": {"[1]": {"test": "Photo stability of bulk substance (Suntest CPS+ cabinet)", "method": "The exposure was 250 Wh/m^2 and 1.2 million lux hours over 29 hours."}, "[2]": {"test": "Hygroscopicity by Dynamic Vapour Sorption Analysis (DVS)", "details": "25° C., citrate salt", "experimental": "Dynamic Vapour Sorption Analysis (DVS)\nThe studies were undertaken using Dynamic Vapour Sorption Appararatus (DVS, Surface Measurement Systems, London UK). The apparatus consists of Cahn micobalance housed inside a temperature-controled cabinet. All experiments were performed at 25° C. The DVS was used to characterize the moisture uptake (w/w %) at different relative humidities (RH). Samples (5-10 mg) were weighed directly into the DSV sample cup and exposed to different relative humidities."}, "[3]": {"test": "Solution stability (isotonic solution, HPLC analysis)", "details": "0.1 mg/ml isotonic solution, ascorbic acid 0.5% (w/v), pH 2 and 4, stored four weeks at 4 to 8° C.; citrate salt"}, "[4]": {"details": "29 hours control sample (stored in the dark)"}, "[5]": {"details": "exposure time 29 hours, 250 Wh/m^2 and 1.2 million lux hours"}}, "note": "Structures can show the parent of a compound that is named as a salt."}
{"molecule": "N#Cc1ccc2[nH]c(O)c(-c3ccc(CN4CCOCC4)cn3)c2c1", "note": "[HCl]", "values": [{"measurement": "photo stability of bulk substance", "setting": "[1]; [4]", "value": 97.7}, {"measurement": "photo stability of bulk substance", "setting": "[1]; exposure time 0 hours", "value": 97.5}, {"measurement": "photo stability of bulk substance", "setting": "[1]; [5]", "value": 89.0}]}
{"molecule": "N#Cc1ccc2[nH]c(O)c(-c3ccc(CN4CCOCC4)cn3)c2c1", "note": "[Citrate, 2-Hydroxy-3-[5-(morpholin-4-ylmethyl)pyridin-2-yl]1H-indole-5-carbonitrile citrate salt]", "values": [{"measurement": "moisture uptake", "setting": "[2]; 40% relative humidity", "value": 7.1, "unit": "w/w %"}, {"measurement": "moisture uptake", "setting": "[2]; 60% relative humidity", "value": 7.6, "unit": "w/w %"}, {"measurement": "moisture uptake", "setting": "[2]; 80% relative humidity", "value": 8.0, "unit": "w/w %"}, {"measurement": "degradation in solution", "setting": "[3]", "value": "no degradation products"}, {"measurement": "photo stability of bulk substance", "setting": "[1]; 29 hours control sample (stored in the dark), citrate salt", "value": 99.1}, {"measurement": "photo stability of bulk substance", "setting": "[1]; exposure time 0 hours, citrate salt", "value": 99.0}, {"measurement": "photo stability of bulk substance", "setting": "[1]; exposure time 29 hours, 250 Wh/m^2 and 1.2 million lux hours, citrate salt", "value": 98.1}]}
{"molecule": "N#Cc1ccc2[nH]c(O)c(-c3ccc(CN4CCOCC4)cn3)c2c1", "note": "[Free base, 2-Hydroxy-3-[5-(morpholin-4-ylmethyl)pyridin-2-yl]1H-indole-5-carbonitrile]", "values": [{"measurement": "photo stability of bulk substance", "setting": "[1]; [4]", "value": 96.1}, {"measurement": "photo stability of bulk substance", "setting": "[1]; exposure time 0 hours", "value": 96.6}, {"measurement": "photo stability of bulk substance", "setting": "[1]; [5]", "value": 83.8}]}
